Measured values as given in patent US10227331B2 (priority 2015, dated 2019).
Like-named read-outs stand apart in the source and are kept apart here.

Experiments:
VIM-1 = VIM-1 (Pseudomonas aeruginosa (strain ATCC 15692 / DSM 22644 / CIP 104116 / JCM 14847 / LMG 12228 / 1C / PRS 101 / PAO1), UniProt A0A0F7KYQ8); experiment: biochemical; conditions: CCF2-FA substrate, 2 hours at 25° C
In short: (§1)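 IC50 values derive from 4-parameter fits of percent inhibition against inhibitor concentration on semi-log axes. Activity was monitored by fluorescence with the CCF2-FA substrate after a 2-hour, 25° C incubation of compound, enzyme and substrate.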

[1] = test system: P. aeruginosa expressing IMP-1, efflux− (MB9799); experiment: Efflux: concentration of MBL inhibitor which restores susceptibility to imipenem; format: cell-based, Pseudomonas aeruginosa; conditions: imipenem at 2 μg/mL, in the presence of a class A, C, D serine β-lactamase inhibitor closely related to relebactam
From the text: (§2) The strain background is Pseudomonas aeruginosa PAO1.

[2] = test system: P. aeruginosa expressing IMP-1, efflux+ (MB9798); format: cell-based, Pseudomonas aeruginosa; conditions: for P. aeruginosa expressing IMP-1, efflux+ (MB9798) MITC95: imipenem at 2 μg/mL, in the presence of a class A, C, D serine β-lactamase inhibitor closely related to relebactam; for Efflux ratio: ratio MITC95 PA_9798/MITC95 PA_9799
From the text: as §2

IMP-1 = IMP-1 (Serratia marcescens, UniProt P52699); experiment: biochemical; format: biochemical
In short: as §1

NDM-1 = NDM-1 (Klebsiella pneumoniae, UniProt C7C422); experiment: biochemical; format: biochemical; conditions: CCF2-FA substrate, 2 hours at 25° C; read-out: NDM-1 IC50
In short: as §1

[3] = test system: Klebsiella pneumoniae expressing VIM-1 (IHMA599644); format: cell-based; conditions: with imipenem 1 μg/ml, 95% inhibition of bacterial growth; for Klebsiella pneumoniae MITC95: VIM-1 (IHMA599644)
In short: (§3)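 Restoration of imipenem susceptibility (1 μg/ml imipenem) was judged by absorbance after 22–24 h at 35° C. Test compound was added to bacteria suspended 1:100 in 1.1× CAMHB from overnight blood-agar cultures.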

[4] = test system: Serratia marcescens expressing IMP-1 (CL5741); format: cell-based; conditions: with imipenem 1 μg/ml, 95% inhibition of bacterial growth; for Serratia marcescens MITC95: IMP-1 (CL5741)
In short: as §3

[5] = test system: Escherichia coli expressing NDM-1 (CLB30005, CLB30016); format: cell-based; conditions: with imipenem 1 μg/ml, 95% inhibition of bacterial growth; for Escherichia coli MITC95: NDM-1 (CLB30016)
In short: as §3

[6] = CCF2-FA substrate, 2 hours at 25° C, read-out: IMP-1 IC50

NDM-1, sequence (C7C422 whole entry, looked up, species assumed): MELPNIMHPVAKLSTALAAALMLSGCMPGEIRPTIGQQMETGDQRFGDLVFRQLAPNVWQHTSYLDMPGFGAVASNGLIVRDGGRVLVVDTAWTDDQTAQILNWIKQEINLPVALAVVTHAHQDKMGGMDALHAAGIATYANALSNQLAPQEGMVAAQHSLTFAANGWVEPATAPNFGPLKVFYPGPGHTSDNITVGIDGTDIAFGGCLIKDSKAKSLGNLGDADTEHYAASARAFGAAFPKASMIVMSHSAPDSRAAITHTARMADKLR
IMP-1, sequence (P52699 whole entry, looked up, species assumed): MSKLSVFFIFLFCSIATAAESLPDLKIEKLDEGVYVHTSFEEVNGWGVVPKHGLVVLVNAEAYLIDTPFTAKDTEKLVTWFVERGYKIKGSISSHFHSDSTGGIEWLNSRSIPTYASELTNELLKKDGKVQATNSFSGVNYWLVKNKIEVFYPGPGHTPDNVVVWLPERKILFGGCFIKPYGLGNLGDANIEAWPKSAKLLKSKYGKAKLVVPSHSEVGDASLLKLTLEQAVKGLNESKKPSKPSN

SMILES	IC50 (VIM-1) [nM]	P. aeruginosa expressing IMP-1, efflux− (MB9799) MITC95 [1] [µM]	P. aeruginosa expressing IMP-1, efflux+ (MB9798) MITC95 [2] [µM]	Efflux ratio [2]	IC50 (IMP-1; [6]) [nM]	IC50 (NDM-1) [nM]	Klebsiella pneumoniae MITC95 [3] [µM]	Serratia marcescens MITC95 [4] [µM]	Escherichia coli MITC95 [5] [µM]	Klebsiella pneumoniae expressing VIM-1 (IHMA599644) MITC95 [3] [µM]	Serratia marcescens expressing IMP-1 (CL5741) MITC95 [4] [µM]	Escherichia coli expressing NDM-1 (CLB30016) MITC95 [5] [µM]	IC50 (IMP-1) [nM]
Nc1nc2cc(F)cc(-c3ccc(S(=O)(=O)C4CNC4)c(S(N)(=O)=O)c3-c3nnn[nH]3)c2[nH]1 [Example 262, 3-(2-amino-5-fluoro-1H-benzo[d]imidazol-7-yl)-6-(azetidin-3-ylsulfonyl)-2-(1H-tetrazol-5-yl) benzenesulfonamide]	0.322	0.7813	0.7813	1.00	0.506	0.0803	3.125	1.563	0.7813	–	–	–	–
NCCN1CCC(S(=O)(=O)c2ccc(-c3cccc4nc(N)[nH]c34)c(-c3nn[nH]n3)c2S(N)(=O)=O)CC1 [Example 48, 3-(2-amino-3H-benzo[d]imidazol-4-yl)-6-(1-(2-aminoethyl)piperidin-4-ylsulfonyl)-2-(2H-tetrazol-5-yl)benzenesulfonamide]	0.404	1.563	3.125	2.00	2.3	0.392	–	–	–	3.125	3.125	1.563	–
Nc1nc2c(-c3ccc(S(=O)(=O)[C@H]4CCNC4)c(S(N)(=O)=O)c3-c3nn[nH]n3)cccc2o1 [Example 190, 3-(2-aminobenzo[d]oxazol-4-yl)-6-((S)-pyrrolidin-3-ylsulfonyl)-2-(2H-tetrazol-5-yl)benzenesulfonamide]	0.169	1.563	1.563	1.00	–	0.113	–	–	–	3.125	1.563	1.563	0.352
NCCS(=O)(=O)c1ccc(-c2cccc3sc(NC(N)=O)nc23)c(-c2nn[nH]n2)c1S(N)(=O)=O [Example 85, 6-(2-aminoethylsulfonyl)-2-(2H-tetrazol-5-yl)-3-(2-ureidobenzo[d]thiazol-4-yl)benzenesulfonamide]	0.0858	0.7813	1.563	2.00	0.144	0.0511	–	–	–	1.563	0.7813	0.3906	–
Nc1nc2c(-c3ccc(S(=O)(=O)[C@H]4C[C@H](N)C4)c(S(N)(=O)=O)c3-c3nn[nH]n3)cccc2s1 [Example 179]	0.322	1.563	0.7813	0.50	0.135	0.106	–	–	–	1.563	1.563	0.7813	–
Cc1ccc(-c2ccc(S(=O)(=O)[C@H]3CCNC3)c(S(N)(=O)=O)c2-c2nn[nH]n2)c2nc(N)sc12 [Example 188, 3-(2-amino-7-methylbenzo[d]thiazol-4-yl)-6-((S)-pyrrolidin-3-ylsulfonyl)-2-(2H-tetrazol-5-yl)benzenesulfonamide]	0.113	0.7813	1.563	2.00	0.109	0.0435	–	–	–	1.563	0.7813	1.563	–
NC[C@H](N)CS(=O)(=O)c1ccc(-c2cccc3[nH]c(N)nc23)c(-c2nnn[nH]2)c1S(N)(=O)=O [Example 293, 3-(2-amino-1H-benzo[d]imidazol-4-yl)-6-((S)-2,3-diaminopropylsulfonyl)-2-(1H-tetrazol-5-yl)benzenesulfonamide]	0.465	0.7813	0.7813	1.00	1.31	0.157	1.563	1.563	0.3906	–	–	–	–
NS(=O)(=O)c1c(S(=O)(=O)C2CNC2)ccc(-c2cccc3[nH]ncc23)c1-c1nnn[nH]1.O=C(O)C(F)(F)F [Example 100, 3-((4-(1H-indazol-4-yl)-2-sulfamoyl-3-(1H-tetrazol-5-yl)phenyl)sulfonyl)azetidin-1-ium 2,2,2-trifluoroacetate]	0.331	1.563	6.25	4.00	1.61	0.358	–	–	–	3.125	3.125	6.25	–
C[C@@H](N)CS(=O)(=O)c1ccc(-c2cccc3[nH]c(C(=O)O)nc23)c(-c2nn[nH]n2)c1S(N)(=O)=O [Example 348, Ammonium (R)-4-(4-((2-aminopropyl)sulfonyl)-3-sulfamoyl-2-(2H-tetrazol-5-yl)phenyl)-1H-benzo[d]imidazole-2-carboxylate]	0.478	3.125	25	8.00	0.847	0.163	6.25	3.125	3.125	–	–	–	–
Nc1nc2cccc(-c3ccc(S(=O)(=O)[C@H]4CC[C@H](N)CC4)c(S(N)(=O)=O)c3-c3nn[nH]n3)c2[nH]1 [Example 178, 3-(2-amino-3H-benzo[d]imidazol-4-yl)-6-((1r,4r)-4-aminocyclohexylsulfonyl)-2-(2H-tetrazol-5-yl)benzenesulfonamide]	0.66	0.7813	0.7813	1.00	0.99	0.275	–	–	–	1.563	0.7813	0.3906	–
Nc1nc2c(-c3ccc(S(=O)(=O)c4ccccn4)c(S(N)(=O)=O)c3-c3nnn[nH]3)cccc2s1 [Example 233, 3-(2-aminobenzo[d]thiazol-4-yl)-6-(pyridin-2-ylsulfonyl)-2-(1H-tetrazol-5-yl)benzenesulfonamide]	0.113	1.563	12.5	8.00	0.203	0.0324	–	–	–	12.5	3.125	3.125	–
NS(=O)(=O)c1c(SC2CNC2)ccc(-c2ccc(NS(=O)(=O)C3CC3)cc2)c1-c1nn[nH]n1 [Example 243, 4-(Azetidin-3-ylthio)-4′-(cyclopropanesulfonamido)-2-(2H-tetrazol-5-yl)-[1,1′-biphenyl]-3-sulfonamide]	9.86	0.7813	100	127.99	11.3	5.88	–	–	–	12.5	3.125	3.125	–
NCCS(=O)(=O)c1ccc(-c2cccc3cc(C(N)=O)[nH]c23)c(-c2nn[nH]n2)c1S(N)(=O)=O [Example 323, 7-(4-((2-aminoethyl)sulfonyl)-3-sulfamoyl-2-(2H-tetrazol-5-yl)phenyl)-1H-indole-2-carboxamide]	0.214	0.7813	0.7813	1.00	0.146	0.0513	1.563	1.563	3.125	–	–	–	–
